Article PMC2670829 (BMC Pharmacology, 2009)
Values joined by “and” are separate entries in the source; they are usually repeats but may differ in a detail not shown here. Equal values may be shown once. Read-outs that look alike come from different tables or passages of the source. Marks after values point to notes of the source that are not given here.

Legend:
[1] = test system: subcutaneous Tsc2^-/- tumors (NTC/T2null cells); test: Subcutaneous Tsc2-/- tumor model in nude mice, sorafenib and rapamycin study; settings: rapamycin 8 mg/kg IP, sorafenib 60 mg/kg gavage, 5 days per week
Protocol: (§1) Nude mice (strain CD-1nuBR, up to 6–8 weeks old) were obtained from Charles River Laboratories, Inc. (Wilmington, Massachusetts) and injected subcutaneously on the dorsal flank with 2.5 million NTC/T2null (Tsc2^-/-, Trp53^-/-) cells. As soon as tumors became visible, they were measured Monday through Friday using calipers. Tumor volumes were calculated using the formula: length × width × width × 0.5 [43]. All mice were euthanized once tumors reached ~3000 mm^3 in accordance with institutional animal care guidelines. Please note that survival analysis is done using time to tumor volume of ~3000 mm^3, because this is when animals are euthanized. […] Statistical comparison of tumor volume measurements between groups is done on the last day that relevant groups had at least four tumor measurements.
Two mice were excluded from the analyses. […] All drug doses were calculated based on an average weight of 30 g per mouse.

[2] = in words
[3] = test system: subcutaneous Tsc2^-/- tumors (NTC/T2null cells); test: Subcutaneous Tsc2-/- tumor model in nude mice, atorvastatin, doxycycline and rapamycin study; settings: for Efficacy on tumor growth and survival, in words / Median survival: doxycycline 10 mg/kg IP 5 days per week, rapamycin 8 mg/kg IP 3 days per week; for Median survival: time to tumor volume ~3000 mm^3, atorvastatin 20 mg/kg IP, start at ~50 mm^3
Protocol: as §1
A cohort of 48 CD-1 nude mice was injected with NTC/T2null (Tsc2^-/-, Trp53^-/-) cells.
All drug treatments started when tumors reached a volume of ~50 mm^3 (day 1 of treatment), regardless of treatment schedule, and animals were euthanized when tumors reached a volume of ~3000 mm^3. If a volume of 40 mm^3 was reached on Thursday or Friday, treatment began that day. Otherwise, treatment was started on the day tumor volume was ≥50 mm^3.
Mice being treated with doxycycline were treated daily Monday through Friday with 200 μl of a 1.5 mg/ml (10 mg/kg) IP injection. […] All drug doses were calculated based on an average weight of 30 g per mouse. […] Doxycycline powder was obtained from Sigma-Aldrich Co. (St. Louis, MO) and was diluted in sterile PBS.

[4] = test system: kidney cystadenomas in Tsc2^+/- mice; settings: cited from earlier work; for Percent decrease in tumor score per kidney with treatment / Tumor score per kidney (ave. ± Std. Err.): analysis at 12 months, ref Messina et al., 2007; for Tumor score per kidney (ave. ± Std. Err.): CCI-779 8 mg/kg per day, 5 days/week
[5] = no reference given; cited from earlier work
[6] = test system: kidney cystadenomas in Tsc2^+/- mice; test: Kidney tumor (cystadenoma) score by quantitative histopathology in Tsc2+/- mice; type: in vivo, mouse; settings: for Tumor score per kidney (ave. ± Std. Err.): daily IP treatment at 6–7 and 12–13 months (rapamycin 8 mg/kg, IFN-g 20,000 IU), weekly rapamycin 16 mg/kg at 7–12 months
Protocol: The Tsc2^+/- mouse is heterozygous for a deletion of exons 1–2 as previously described. The Tsc2^+/- cohort used in this experiment was obtained by crossing these Tsc2^+/- mice with wild-type C57BL/6 mice. In order to avoid bias due to strain variation, sibling littermates were used as controls. Tsc2^+/- mice were assigned to one of three cohorts: rapamycin 8 mg/kg IP, rapamycin 8 mg/kg plus IFN-g 20,000 units IP, and untreated. All mice receiving drug therapy were treated in three consecutive parts: In part one, mice were treated daily (5 days/week, Monday through Friday) for one month (6 months ≤ age < 7 months) with their assigned treatments by intraperitoneal injection (IP). In part two, all mice in both the rapamycin and rapamycin plus IFN-g cohorts stopped their assigned daily treatment and started a weekly 16 mg/kg maintenance dose of rapamycin for five months (7 months ≤ age < 12 months). In the final part, all mice restarted the same treatment they received from 6–7 months of age for one final month (see Table 1). The two month-long periods of daily rapamycin treatment before and after the maintenance treatment were included so that we can compare the results of this study with our previous preclinical studies that also include a total of two months of daily treatment without the weekly maintenance treatment phase. All mice were euthanized at 13 months of age according to institutional animal care guidelines. We evaluated kidney disease at 13 months in this experiment instead of 12 months in prior studies because kidney disease severity is likely to be higher in older mice, and we reasoned that this may allow us to better detect small differences between treatment groups. The severity of kidney disease was determined in all animals using quantitative histopathology as described below.
Rapamycin powder was obtained from LC Laboratories (Woburn, MA) and a 20 mg/ml stock of rapamycin was made in ethanol (stored at -20°C for up to one week). The stock solution was diluted to 1.2 mg/ml in vehicle (0.25% PEG, 0.25% Tween-80) for the 8 mg/kg dose and diluted to 2.4 mg/ml in vehicle for the 16 mg/kg dose. Murine IFN-g (R&D Systems, Minneapolis, MN) was diluted to 100,000 units/ml in sterile phosphate buffered saline (PBS) containing 0.1% mouse serum albumin (Sigma-Aldrich, Inc., St. Louis, MO) and stored at 4°C. […]
For histological quantification of kidney cystadenomas, each kidney was fixed and sliced at 1 mm intervals. […] All slides were coded to keep scoring blinded, and all cystadenomas were counted, measured, and scored according to the scale shown in Table 2 by two blinded researchers (CW and AN). Cystadenomas that extended into more than one 1 mm kidney slice were counted only once and scored according to the maximum diameter. […]

[7] = mouse, in vivo
Protocol: Animal behavior and health were monitored daily, and animals were weighed at the start of the study and at the time of necropsy. […] All mice from rapamycin treated cohorts were euthanized 24 hours after the last rapamycin treatment upon reaching the endpoint tumor volume. Upon sacrifice, whole blood and tumor were harvested for drug level testing.

[8] = in vivo; settings: mouse, intraperitoneal, 8 mg/kg
[9] = mean ± standard error, rapamycin 8 mg/kg 3 days per week, atorvastatin 20 mg/kg, doxycycline 10 mg/kg 5 days per week, IP
[10] = 8 mg/kg daily × 2 months, total 9.6 mg per mouse, ref Messina et al. 2007

CNC(=O)c1cc(Oc2ccc(NC(=O)Nc3ccc(Cl)c(C(F)(F)F)c3)cc2)ccn1 [Sorafenib]
Day 16, average tumor volume ([1]; mean ± standard error): 2209 ± 499 mm^3
Efficacy on tumor growth and survival, in words [1]: not effective
Effect on the metabolism of rapamycin (rapamycin levels in combination cohorts) [2]: did not significantly affect the metabolism of rapamycin

C[C@H]1c2cccc(O)c2C(=O)C2=C(O)[C@]3(O)C(=O)C(C(N)=O)=C(O)[C@@H](N(C)C)[C@@H]3[C@@H](O)[C@@H]21 [Doxycycline]
Efficacy on tumor growth and survival, in words ([3]; atorvastatin 20 mg/kg): not effective as either a single agent or in combination with rapamycin
Day 26, average tumor volume [3, 9]: 1749 ± 352 mm^3
Median survival [3]: 28 days
Effect on the metabolism of rapamycin (rapamycin levels in combination cohorts) [2]: did not significantly affect the metabolism of rapamycin

CO[C@H]1C[C@@H]2CC[C@@H](C)[C@@](O)(O2)C(=O)C(=O)N2CCCC[C@H]2C(=O)O[C@H]([C@H](C)C[C@@H]2CC[C@@H](OC(=O)C(C)(CO)CO)[C@H](OC)C2)CC(=O)[C@H](C)/C=C(\C)[C@@H](O)[C@@H](OC)C(=O)[C@H](C)C[C@H](C)/C=C/C=C/C=C/1C [CCI-779, temsirolimus]
% Reduction in kidney tumors (kidney tumor number) ([4]; 4 mg/kg 3 times a week × 3 months, total 4.32 mg per mouse, ref Lee et al. 2005): 84% and 83.6%**
% Reduction in kidney tumors (kidney tumor number) [4, 10]: 64%
% Reduction in kidney tumors (kidney tumor score) [4, 10]: 63%*
Percent decrease in tumor score per kidney with treatment ([4]; CCI-779 8 mg/kg per day at 6–8 months): 39.7%
Percent decrease in tumor score per kidney with treatment ([4]; CCI-779 8 mg/kg per day at 10–12 months, 8 mg/kg/day): 64.4%
Tumor score per kidney (ave. ± Std. Err.) ([4]; at 6–8 months): 6.00 ± 1.01
Tumor score per kidney (ave. ± Std. Err.) ([4]; at 10–12 months): 3.54 ± 0.76

CC(C)c1c(C(=O)Nc2ccccc2)c(-c2ccccc2)c(-c2ccc(F)cc2)n1CC[C@@H](O)C[C@@H](O)CC(=O)O [Atorvastatin]
Efficacy on tumor growth and survival, in words ([3]; atorvastatin 20 mg/kg): did not reduce tumor growth or improve survival as a single agent
Day 26, average tumor volume [3, 9]: 1931 ± 298 mm^3
Median survival [3]: 32.5 days

CO[C@H]1C[C@@H]2CC[C@@H](C)[C@@](O)(O2)C(=O)C(=O)N2CCCC[C@H]2C(=O)O[C@H]([C@H](C)C[C@@H]2CC[C@@H](O)[C@H](OC)C2)CC(=O)[C@H](C)/C=C(\C)[C@@H](O)[C@@H](OC)C(=O)[C@H](C)C[C@H](C)/C=C/C=C/C=C/1C [Rapamycin]
Day 26, average tumor volume [3, 9]: 544 ± 110 mm^3
Day 42, average tumor volume [3, 9]: 1784 ± 643 mm^3
Median survival [3]: 41.5 days
Day 16, average tumor volume ([1]; mean ± standard error): 284 ± 52 mm^3
Day 43, average tumor volume ([1]; mean ± standard error): 2499 ± 222 mm^3
Day 44, average tumor volume ([1]; mean ± standard error): 2607 ± 247 mm^3
Median survival ([1]; time to tumor volume ~3000 mm^3, start at ~150 mm^3): 46 days
Trough levels for standard rapamycin dosing in humans [5]: 3 to 20 ng/mL
Score of kidney lesion subtypes (cystic, pre-papillary, papillary, solid) ([6]; 13 months, in words, no statistics): reduced the score of all subtypes of kidney lesions
Tumor score per kidney (ave. ± Std. Err.) ([6]; analysis at 13 months): 0.83 ± .018
Tumor score per kidney (ave. ± Std. Err.) ([6]; analysis at 13 months, listed as rapamycin): 0.83 ± 0.18
Percent decrease in tumor score per kidney with treatment ([6]; vs untreated, analysis at 13 months, daily treatment 6–7 and 12–13 months, weekly rapamycin 16 mg/kg 7–12 months): 94.5%
Weight at Necropsy [7]: 35.6 ± 0.6 g
Weight at Start [7]: 36.0 ± 0.6 g
Weight gain [7]: -0.4 ± 0.6 g
Weight gain, in words [7]: failed to gain weight
concentration at 24 h ([8]; CD-1 nude, tumor): 258 ± 91.6 ng/mL
concentration at 24 h ([8]; nude, whole blood): 42.9 ± 24.7 ng/mL
